Data as given in patent US20190160049A1, “2-OXO-1,2-DIHYDROPYRIDINE-3-CARBOXAMIDE COMPOUNDS AND THEIR USE AS DUAL INHIBITORS OF PDK1/AURA” (INTERNATIONAL SOCIETY FOR DRUG DEVELOPMENT S.R.L., priority 2016, published 2019).

Tests used:
[1] = tested on: cancer stem cell (CSC) neurospheres obtained from U87MG cells; experiment: CSC (GBM stem cell) proliferation, MTS assay; type: cell-based
Description: FIG. 3 illustrates the effects of SA16 on CSC proliferation of example 3b. CSCs were treated in complete neurosphere medium with different concentrations of SA16 (1 nM-100 μM) for seven days. At the end of treatment, cell proliferation was measured using the MTS assay. The data are expressed as a percentage with respect to that of untreated cells (control), which was set to 100%, and are the mean values±SEM of three independent experiments, each performed in duplicate. IC50 value after seven days of treatment were calculated from sigmoid dose-response curve;
FIG. 4 illustrates combined inhibition of PDK1 and Aurora A on CSCs proliferation of example 3b. CSCs were treated in complete medium with different concentrations of MP7, in the presence or absence of Alisertib, for seven days. At the end of treatment, cell proliferation was measured using the MTS assay.
The data are expressed as a percentage with respect to that of untreated cells (control), which was set to 100%, and are the mean values±SEM of three independent experiments, each performed in duplicate. The significance of the differences was determined with a one-way ANOVA with Bonferroni post-test: * p<0.05, *** p<0.001 vs. control cells; ## p<0.01, ### p<0.001 vs. cells treated with MP7 alone; §§ p<0.01, § § § p<0.001 vs. cells treated with Alisertib alone;
The inventors also examined the effects of SA16 compound on cancer stem cell (CSC) neurospheres obtained from U87MG cells.

AurA = target: T1, AurA (Homo sapiens, UniProt O14965); experiment: FRET-based Z'-LYTE kinase assay against AurA; type: biochemical; details: for IC50 / inhibition at 10 µM: Z'-LYTE assay; for inhibition at 10 µM: 10μM compound
T1 construct: purchased Invitrogen Corporation, Life Technologies
T1 sequence (O14965 1-403): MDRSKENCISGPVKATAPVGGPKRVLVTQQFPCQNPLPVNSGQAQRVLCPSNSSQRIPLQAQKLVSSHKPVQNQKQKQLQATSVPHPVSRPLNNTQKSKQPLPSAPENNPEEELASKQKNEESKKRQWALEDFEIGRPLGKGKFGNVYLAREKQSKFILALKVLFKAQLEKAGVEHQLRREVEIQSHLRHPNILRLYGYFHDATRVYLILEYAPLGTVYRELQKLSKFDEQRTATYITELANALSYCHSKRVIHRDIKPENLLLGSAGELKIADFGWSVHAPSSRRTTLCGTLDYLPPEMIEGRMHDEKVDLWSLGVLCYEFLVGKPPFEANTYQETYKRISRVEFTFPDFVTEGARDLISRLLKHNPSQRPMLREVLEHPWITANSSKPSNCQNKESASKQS
Description: (§1) The compounds of Formula (I) were tested in the biological test named Kinase-specific Z′-LYTE® assay (Invitrogen Corporation, Life Technologies).

U87MG cells = experiment: U87MG cell proliferation, MTS assay; type: cell-based; details: 72 h
Description: FIG. 1 illustrates the effects of SA16 on U87MG cell proliferation of example 3 (a). U87MG cells were treated in complete medium with different concentrations of SA16 (1 nM-100 μM) for 72 h. At the end of treatment, cell proliferation was measured using the MTS assay. The data are expressed as a percentage with respect to that of untreated cells (control), which was set to 100%, and are the mean values±SEM of three independent experiments, each performed in duplicate. The significance of the differences was determined with a one-way ANOVA with Bonferroni post-test: * p<0.05, ** p<0.01, *** p<0.001 vs. control cells;
FIG. 2 illustrates the combined inhibition of PDK1 and Aurora A on U87MG cell proliferation of example 3a. U87MG cells were treated in complete medium with different concentrations of MP7, in the presence or absence of Alisertib, for 72 h. At the end of treatment, cell proliferation was measured using the MTS assay. The data are expressed as a percentage with respect to that of untreated cells (control), which was set to 100%, and are the mean values±SEM of three independent experiments, each performed in duplicate. The significance of the differences was determined with a one-way ANOVA with Bonferroni post-test: * p<0.05, *** p<0.001 vs. control cells; ## p<0.01, ### p<0.001 vs. cells treated with MP7 alone; §§ p<0.01, § § § p<0.001 vs. cells treated with Alisertib alone;
To examine the effects of SA16 on U87MG cell growth/survival, U87MG cells were incubated with different concentrations of the compound SA16 (1 nM-10 μM) for 72 h.
In parallel experiments, U87MG proliferation was assessed in the presence of a well-known PDK1 inhibitor MP7, alone or in combination with the Aurora A inhibitor, Alisertib.

PDK1 = target: T2, PDK1 (Homo sapiens, UniProt O15530); experiment: FRET-based Z'-LYTE kinase assay against PDK1; type: biochemical
T2 construct: purchased Invitrogen Corporation, Life Technologies
T2 sequence (O15530 1-556): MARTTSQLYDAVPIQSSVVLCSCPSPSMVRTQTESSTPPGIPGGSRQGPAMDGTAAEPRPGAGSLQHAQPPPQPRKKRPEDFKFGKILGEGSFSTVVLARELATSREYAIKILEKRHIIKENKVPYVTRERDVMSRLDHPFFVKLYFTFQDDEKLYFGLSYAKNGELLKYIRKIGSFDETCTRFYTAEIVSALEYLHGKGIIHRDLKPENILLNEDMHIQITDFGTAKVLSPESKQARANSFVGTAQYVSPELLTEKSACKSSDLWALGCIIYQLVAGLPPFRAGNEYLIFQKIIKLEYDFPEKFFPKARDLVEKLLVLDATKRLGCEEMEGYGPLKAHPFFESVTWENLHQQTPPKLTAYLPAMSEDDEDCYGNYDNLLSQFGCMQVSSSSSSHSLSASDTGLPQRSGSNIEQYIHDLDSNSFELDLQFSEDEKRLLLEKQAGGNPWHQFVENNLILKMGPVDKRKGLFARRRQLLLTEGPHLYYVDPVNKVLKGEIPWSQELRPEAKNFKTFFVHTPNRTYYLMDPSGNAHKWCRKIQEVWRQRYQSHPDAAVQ
Description: as §1

CSC neurospheres = experiment: Sphere-derived cell morphology (neurosphere area, outgrowth of cellular processes); type: cell-based; details: seven days; SA16 10 nM, 1 μM, 10 μM; 2.5 PIM MP7, 1.5 μM Alisertib
Description: FIG. 5 illustrates the effects of SA16 on sphere-derived cell morphology of Example 3c. CSCs were treated for seven days with complete NSC medium containing DMSO (control), or SA16 (10 nM, 1 μM, 10 μM) (A) Representative cell micrographs of control and SA16 (10 μM) after seven days of treatment are shown. The area of the culture plates occupied by the spheres (B) and the length of cellular processes (C) were scored after seven days of treatment. The counts represent the mean values±SEM of two independent experiments. The significance of differences was determined with a one-way ANOVA with Bonferroni post-test: * p<0.05, ** p<0.01, *** p<0.001 vs. control cells.
FIG. 7 illustrates the effects of MP7, Alisertib and of their combined treatment on sphere-derived cell morphology of example 3c. CSCs were treated for seven days with complete NSC medium containing DMSO (control), MP7 and/or alisertib (A) Representative cell micrographs after seven days of treatment are shown. The area of the culture plates occupied by the spheres (B) and the length of cellular processes (C) were scored after seven days of treatment. The counts represent the mean values±SEM of two independent experiments. The significance of differences was determined with a one-way ANOVA with Bonferroni post-test: * p<0.05, *** p<0.001 vs. control cells; ## p<0.01 vs. cells treated with MP7 alone; § p<0.05 vs. cells treated with Alisertib alone.
The effects of SA16 on morphology of neurospheres were evaluated by quantifying the area occupied by the cells in culture plates, as well as the outgrowth of cellular processes.
The inventors then evaluated the effects of MP7, Alisertib and of their combination on CSC differentiation. The cells were incubated with […] MP7, alone or in combination with 1.5 μM Alisertib for seven days.

| SMILES | IC50 (AurA) | IC50 (PDK1; Z'-LYTE assay) | further results |
| --- | --- | --- | --- |
| O=C1Nc2ccc(NC(=O)[C@H](NC(=O)c3cccn(Cc4ccc(F)c(F)c4)c3=O)c3ccccc3)cc2/C1=C/c1cnc[nH]1 [SA16, (Z)—(R)—N-(2-((3-((1H-imidazol-5-yl)methylene)-2-oxoindolin-5-yl)amino)-2-oxo-1-phenylethyl)-1-(3,4-difluorobenzyl)-2-oxo-1,2-dihydropyridine-3-carboxamide] | 35 nM |  | IC50 ([1]; Homo sapiens, U-87 MG, 168 h, seven days of treatment, read-out: IC50 of inhibition of GSC proliferation): 8.33 ± 0.78 nM; maximal percentage of inhibition of GSC proliferation ([1]; seven days of treatment): 80.0±2.0%; maximal percentage of inhibition of U87MG cell proliferation (U87MG cells; 1 nM-10 μM): 49.4±2% |
| O=C(CNC(=O)c1cccn(Cc2ccc(F)c(F)c2)c1=O)Nc1ccc2c(c1)/C(=C/c1cnc[nH]1)C(=O)N2 [IB35, (Z)—N-(2-((3-((1H-imidazol-5-yl)methylene)-2-oxoindolin-5-yl)amino)-2-oxoethyl)-1-(3,4-difluorobenzyl)-2-oxo-1,2-dihydro pyridine-3-carboxamide] | 289 nM |  |  |
| O=C(CCNC(=O)c1cccn(Cc2ccc(F)c(F)c2)c1=O)Nc1ccc2c(c1)/C(=C/c1cnc[nH]1)C(=O)N2 [DD21, (Z)—N-(3-((3-((1H-imidazol-5-yl)methylene)-2-oxoindolin-5-yl)amino)-3-oxopropyl)-1-(3,4-difluorobenzyl)-2-oxo-1,2-dihydropyridine-3-carboxamide] | 2470 nM | 103 nM |  |
| O=C(N[C@@H](COc1ccc2[nH]c(=O)[nH]c2c1)c1ccccc1)c1cccn(Cc2ccc(F)c(F)c2)c1=O [MP7, 1-(3,4-difluorobenzyl)-2-oxo-N-{(1R)-2-[(2-oxo-2,3-dihydro-1H-benzimidazol-5-yl)oxy]-1-phenylethyl}-1,2-dihydropyridine-3-carboxamide] |  |  | effect on CSC proliferation (in words) ([1]; seven days): slight effects on U87MG proliferation; area occupied by the neurospheres (CSC neurospheres): reduction in the area occupied by the neurospheres; effect on U87MG cell proliferation (in words) (U87MG cells): did not show a significant inhibition of cell proliferation |
| Cc1ccc(C(=O)N[C@@H](C(=O)Nc2ccc3c(c2)/C(=C/c2cnc[nH]2)C(=O)N3)c2ccccc2)c(=O)n1Cc1ccc(F)c(F)c1 [Compound V18, (R,Z)—N-(2-((3-((1H-imidazol-5-yl)methylene)-2-oxoindolin-5-yl)amino)-2-oxo-1-phenylethyl)-1-(3,4-difluorobenzyl)-6-methyl-2-oxo-1,2-dihydropyridine-3-carboxamide] | 69.8 nM | 148 nM |  |
| Cc1c(Br)cc(C(=O)N[C@@H](C(=O)Nc2ccc3c(c2)/C(=C/c2cnc[nH]2)C(=O)N3)c2ccccc2)c(=O)n1Cc1ccc(F)c(F)c1 [Compound V118, (R,Z)—N-(2-((3-((1H-imidazol-5-yl)methylene)-2-oxoindolin-5-yl)amino)-2-oxo-1-phenylethyl)-5-bromo-1-(3,4-difluorobenzyl)-6-methyl-2-oxo-1,2-dihydropyridine-3-carboxamide] | 118 nM | 475 nM |  |
| Cc1ccc(C(=O)NCC(=O)Nc2ccc3c(c2)/C(=C/c2cnc[nH]2)C(=O)N3)c(=O)n1Cc1ccc(F)c(F)c1 [SST200, (Z)—N-(2-((3-((1H-imidazol-5-yl)methylene)-2-oxoindolin-5-yl)amino)-2-oxoethyl)-1-(3,4-difluorobenzyl)-6-methyl-2-oxo-1,2-dihydropyridine-3-carboxamide] | 193 nM | 103 nM |  |
| Cc1c(Br)cc(C(=O)NCC(=O)Nc2ccc3c(c2)/C(=C/c2cnc[nH]2)C(=O)N3)c(=O)n1Cc1ccc(F)c(F)c1 [Compound V123, (Z)—N-(2-((3-((1H-imidazol-5-yl)methylene)-2-oxoindolin-5-yl)amino)-2-oxoethyl)-5-bromo-1-(3,4-difluorobenzyl)-6-methyl-2-oxo-1,2-dihydropyridine-3-carboxamide] |  | 134 nM | inhibition at 10 µM (AurA): 52% |
| O=C(CNC(=O)c1cc2cccnc2n(Cc2ccc(F)c(F)c2)c1=O)Nc1ccc2c(c1)/C(=C/c1cnc[nH]1)C(=O)N2 [SST201, (Z)—N-(2-((3-((1H-imidazol-5-yl)methylene)-2-oxoindolin-5-yl)amino)-2-oxoethyl)-1-(3,4-difluorobenzyl)-2-oxo-1,2-dihydro-1,8-naphthyridine-3-carboxamide] |  |  | inhibition at 10 µM (AurA): 43%; inhibition at 10 µM (PDK1; 10μM compound, Z'-LYTE assay): 35% |
| O=C(CCCNC(=O)c1cccn(Cc2ccc(F)c(F)c2)c1=O)Nc1ccc2c(c1)/C(=C/c1cnc[nH]1)C(=O)N2 [DF8, (Z)—N-(4-((3-((1H-imidazol-5-yl)methylene)-2-oxoindolin-5-yl)amino)-4-oxobutyl)-1-(3,4-difluorobenzyl)-2-oxo-1,2-dihydropyridine-3-carboxamide] | 611 nM | 245 nM | inhibition of AurA kinase (in words) (AurA): best effects; inhibition of PDK1 kinase (in words) (PDK1): best effects |
